Laboratory results published in US6849438B1, “Isolated and purified human soluble guanylyl cyclase α1/β1 (hsgcα1/β1)” (Vasopharm Biotech GmbH, priority 1998, dated 2005).

Target: T1, recombinant human sGC (rhsGCα1/rhsGCβ1) in intact Sf9 cells (Homo sapiens, UniProt Q02108+Q02153)
T1 construct: Thus, the complete hsGCα1 cDNA is under the control of the polyhedrin promotor (PHP); Thus, the complete hsGCβ1 cDNA is under the control of the polyhedrin promotor (PHP); expressed in transfected cells; host or cells: Sf9 insect cells coinfected with recombinant baculoviruses (pVL1393-derived)
T1 sequence (Q02108 1-690): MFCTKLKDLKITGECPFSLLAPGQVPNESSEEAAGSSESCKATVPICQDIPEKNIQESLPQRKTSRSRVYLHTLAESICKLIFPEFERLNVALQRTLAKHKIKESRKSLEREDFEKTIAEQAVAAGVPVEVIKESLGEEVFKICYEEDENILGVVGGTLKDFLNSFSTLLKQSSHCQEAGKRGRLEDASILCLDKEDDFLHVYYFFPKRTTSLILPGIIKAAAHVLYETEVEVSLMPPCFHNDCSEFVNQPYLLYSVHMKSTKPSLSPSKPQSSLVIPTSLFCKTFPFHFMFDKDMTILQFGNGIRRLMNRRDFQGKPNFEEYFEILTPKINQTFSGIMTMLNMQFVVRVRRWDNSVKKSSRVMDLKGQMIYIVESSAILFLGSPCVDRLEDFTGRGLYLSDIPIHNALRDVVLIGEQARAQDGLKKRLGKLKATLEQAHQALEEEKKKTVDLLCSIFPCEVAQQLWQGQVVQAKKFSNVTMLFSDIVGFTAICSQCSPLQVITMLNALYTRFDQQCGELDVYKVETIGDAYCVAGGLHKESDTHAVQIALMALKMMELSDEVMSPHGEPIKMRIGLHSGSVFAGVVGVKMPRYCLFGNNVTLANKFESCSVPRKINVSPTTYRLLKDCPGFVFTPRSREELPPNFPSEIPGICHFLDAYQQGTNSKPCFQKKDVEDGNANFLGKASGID
T1 sequence (Q02153 1-619): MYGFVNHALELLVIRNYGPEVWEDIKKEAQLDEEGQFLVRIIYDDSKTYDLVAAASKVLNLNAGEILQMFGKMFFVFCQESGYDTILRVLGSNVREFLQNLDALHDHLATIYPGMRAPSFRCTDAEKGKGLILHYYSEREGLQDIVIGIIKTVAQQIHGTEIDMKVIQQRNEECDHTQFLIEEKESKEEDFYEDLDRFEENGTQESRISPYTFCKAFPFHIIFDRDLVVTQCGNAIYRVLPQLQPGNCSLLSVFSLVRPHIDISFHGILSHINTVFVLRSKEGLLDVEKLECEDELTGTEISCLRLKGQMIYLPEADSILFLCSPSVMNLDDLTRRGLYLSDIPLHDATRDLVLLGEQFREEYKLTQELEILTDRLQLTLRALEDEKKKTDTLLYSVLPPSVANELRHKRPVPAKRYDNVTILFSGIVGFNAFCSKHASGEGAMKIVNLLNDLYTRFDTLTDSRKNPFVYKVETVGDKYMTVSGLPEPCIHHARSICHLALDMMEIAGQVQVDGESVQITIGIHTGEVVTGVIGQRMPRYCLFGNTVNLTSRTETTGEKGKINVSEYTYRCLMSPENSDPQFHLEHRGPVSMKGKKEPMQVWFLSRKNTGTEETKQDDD
Assay: cGMP content (RIA) in intact Sf9 cells coexpressing rhsGCα1 and rhsGCβ1
Type: cell-based
Protocol: For the production of functional heterodimeric human sGC, rhsGCα1 and rhsGCβ1 were coexpressed in Sf9 cells with recombinant baculoviruses. For this, Sf9 monolayer cultures [2.5×10^6 cells/dish, Ø 90 mm; supplements see example 2] were coinfected with a M.O.I. (multiplicity of infection) of 2 pfu/cell of each recombinant baculovirus (hsGCα1 and hsGCβ1; both without GST-tag) and cultivated for 48 hours at 27° C. The basal as well as the NO-stimulated activity of the sGC in the cells was determined by measurement of the cGMP content in the cells in the presence of the phosphodiesterase inhibitor IBMX (3-isobutyl-1-methylxanthine).
For the determination of the cGMP content, the culture media was replaced by Krebs-Ringer-buffer (KRB; […]; 4.74 mM KCI; 2.54 mM CaCl2; 1.19 mM MgSO4; 1.19 mM KH2PO4; 25 mM NaHCO3; 10 mM HEPES; pH 7.4; 0.1% BSA) which, in addition, contained 1 mM IBMX. The cells were incubated for one hour at 27° C. Then the cells were washed with ice-cold KRP and harvested in 1 ml ice-cold ethanol (80%) with a cell scraper. The cells were homogenized by sonication [see Example 3] and centrifuged at 20,000×g for 20 minutes. The supernatant was dried in a speed-vac and the residue resuspended in 25 mM TEA, pH 7.8. The cGMP content was determined by means of RIA (Biotrend).

| influence on basal cGMP levels (basal, without SNP) | effect on stimulation of rhsGC with SNP (simultaneous incubation with ODQ and SNP) | SMILES | increase of cGMP content (10 μM YC-1 for 2 minutes) [fold] | increase of cGMP content (100 μM YC-1, compared with 10 μM YC-1) | cGMP levels compared to stimulation with SNP alone (YC-1 simultaneously with 100 μM SNP) |
| --- | --- | --- | --- | --- | --- |
| did not have an influence | inhibited | O=c1onc2cnc3ccccc3n12 [ODQ, 1H-[1,2,4]oxadiazolo[4,3,-a]chinoxalin-1-on] |  |  |  |
|  |  | OCc1ccc(-c2nn(Cc3ccccc3)c3ccccc23)o1 [YC-1, 3-(5′-hydroxymethyl-2′-furyl)-1-benzylindazol] | 3.4 | the same effect | doubled |
